# Legend:
# [1] = Encapsulation efficiency of loaded LNPs, RiboGreen RNA assay (Method A); type: physicochemical; conditions: encapsulation efficiency of mRNA-loaded LNP, Method A, RiboGreen
# In short: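 Encapsulation determined by RiboGreen fluorescence (excitation 480, emission 525) comparing Triton X-100–lysed and intact LNP wells, duplicates, after 10 min at 37° C and cooling to room temperature. Sample stocks ~4-7 μg/mL RNA in TE buffer; concentration from RNA standard curve.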
# HeLa cells = test: Cell viability assessment with MTT assay (Method B); type: cell-based; conditions: 24 h
# Protocol: The synthesized lipids were tested in term of in vitro transfection efficacy and toxicity on HeLa cells. In order to perform the mentioned biological tests, appropriate LNPs had to be formulated from the synthesized lipids. The formulation technique was different in Method A and B. The particle size, polydispersity index (PDI) and zeta potential of resulting LNPs were determined by means of Dynamic Light Scattering technique (DLS). Prior to biological testing the encapsulation efficiency (EE) of the loaded LNPs was determined by using RiboGreen RNA assay. In case of Method A Luc mRNA while in case of Method B GFP mRNA was transfected into the cells. In parallel with the transfection experiments, toxicity of the investigated LNPs was determined, in case of Method A resazurin assay while in case of Method B MTT assay was used. Additionally, the toxicity of the lipids was investigated on HepG2 cells and IC50 values were determined.
# • MEM (Sigma, cat #M5650-500 mL) • Fetal Bovine Serum, FBS (Sigma, cat #F7524-500 mL) • Thiazolyl Blue Tetrazolium Bromide, MTT (TCI Chemicals, cat #D0801-5G) • Solutions of the formulations (see “Preparation of GFP mRNA loaded LNP” protocol) • Dilutor: 10 mL MEM+0,036 mL ethanol • Phosphate buffered saline, PBS
# • 1. Plate 10,000 HeLa cells per well in 96 well plate. […] Total 60 wells should be seeded. Incubate in MEM+10% FBS at 37° C. in a humidified atmosphere with 5% CO2 for 24 h. • 2. Examine under the microscope. Confluency must be at or nearly 80%. • 3. Gently remove the media (aspirate). Place 50 μL of the following formulations: • a) 6 wells with dilutor—negative control • b) 6 wells with Lipofectamine-50—positive control. • c) 6 wells with Lipofectamine-6—secondary positive control • d) 6 wells per formulations—test samples. • 4. Incubate plate for 1 hours at 37° C. • 5. Add 50 μL of MEM+20% FBS (which will become 10% upon dilution). • 6. […] Measure the absorbance of each well at 570 nm using a microplate reader. Measure the absorbance at a reference wavelength of 650 nm to subtract background absorbance. • 11. […]
Structure (SMILES),EE (%) [1],Cell Viability % (HeLa cells)
"CCCCC/C=C\C/C=C\CCCCCCCCOC(CCCCCCC/C=C\C/C=C\CCCCC)O[Si](C)(C)OCCCCCCN(CCO)CCO (stereo not drawn) [Example 48, (23Z,26Z)-13-((8Z,11Z)-heptadeca-8,11-dien-1-yl)-3-(2-hydroxyethyl)-11,11-dimethyl-10,12,14-trioxa-3-aza-11-siladotriaconta-23,26-dien-1-ol]",85%,51.5%
"CCCCC/C=C\C/C=C\CCCCCCCCOC(CCCCCCC/C=C\C/C=C\CCCCC)O[Si](C)(C)OCCCCCCN(C)CCO (stereo not drawn) [Example 56, (23Z,26Z)-13-((8Z,11Z)-heptadeca-8,11-dien-1-yl)-3,11,11-trimethyl-10,12,14-trioxa-3-aza-11-siladotriaconta-23,26-dien-1-ol]",85%,40.2%
"CCCCC/C=C\C/C=C\CCCCCCCCOC(CCCCCCC/C=C\C/C=C\CCCCC)O[Si](C)(C)OCCCCCCN1CCN(CCO)CC1 (stereo not drawn) [Example 58, 2-(4-((20Z,23Z)-10-((8Z,11Z)-heptadeca-8,11-dien-1-yl)-8,8-dimethyl-7,9,11-trioxa-8-silanonacosa-20,23-dien-1-yl)piperazin-1-yl)ethan-1-ol]",86%,52.1%

# Reference: patent US20260109721A1, “IONIZABLE CATIONIC LIPIDS INCORPORATING SILICON: SYNTHESIS AND LNP FORMULATION” (priority 2023, published 2026)
